Seven compounds from patent publication US9585865B2, “Small molecule modulators of the cold and menthol receptor TRPM8” (B.R.A.I.N. Biotechnology Research and Information Network AG, priority 2011, dated 2017) can be followed below.

Several values for one entry are separate records, joined by “and”; a condition that tells them apart may be missing. Identical values can stand only once.

The target in one experiment is T1, human TRPM8 (Homo sapiens, UniProt Q7Z2W7).
T1 construct: expressed in transfected cells; host or cells: HEK293 (human cells)
Kind of experiment: functional cell based calcium assay, cells recombinantly expressing human TRPM8. To be noted: for EC50: activator (agonist) of TRPM8, intracellular calcium, calcium-sensitive dye fluorescence; for EC50 as activator of TRPM8 times lower than EC50 as activator of TRPA1: ratio EC50 TRPA1 / EC50 TRPM8. From the text:
(§1) As used herein, a functional cell based assay under standard conditions means evaluating the cellular activity of compounds with regard to the modulation of the intracellular calcium level using cells recombinantly expressing human TRPM8 or human TRPA1. In particular, in this context the term “standard conditions” means an activity test using HEK293 cells recombinantly expressing either human TRPM8 or human TRPA1, which cells have been contacted with a calcium-sensitive dye (such as Fluo-4AM, i.e. Fluo-4-acetoxymethylester), wherein the cells are incubated with the compound to be tested, and receptor modulation is quantitatively detected by calcium-dependent changes is fluorescence intensity. Such a test system is disclosed, inter alia, in Behrendt H J et al., Br. J. Pharmacol. 2004, 141:737-745, which is enclosed herein by reference.
(§2) A screening for novel modulators of TRPM8 was conducted. For the screening, a routine screening setup was used. In particular, the compounds comprised by a compound library were tested for agonistic activity towards TRPM8 and a dose response analysis of the most promising candidates was conducted (TRPM8 versus TRPA1). In particular, promising candidates were analyzed with regard to their EC50 values as well as their efficacy values, and 7 development candidates were selected (i.e. Compounds I.3, II.3, III.3, IV.3, V.3, VI.3, and VII.3, as described herein above).
(§3) For the above analysis, a functional cell based assay under standard conditions as described herein was used, i.e. the cellular activity of the compounds with regard to the modulation of the intracellular calcium level was evaluated using cells recombinantly expressing human TRPM8 or human TRPA1. In particular, human cells recombinantly expressing either human TRPM8 or human TRPA1 were used, which cells have been contacted with a calcium-sensitive dye, wherein the cells were incubated with the compound to be tested, and receptor modulation was quantitatively detected by calcium-dependent changes in fluorescence intensity. Such a test system is disclosed, inter alia, in Behrendt H J et al., Br. J. Pharmacol. 2004, 141:737-745, which is enclosed herein by reference. Such a test system is also disclosed, inter alia, in WO 2010/026094, which is also enclosed herein by reference. However, it should be understood that any screening method and method suitable for evaluating the agonistic activity of compounds towards a channel (such as TRPM8) can be used. Suitable methods are routine and known to the skilled person.
A general note: A change in cytosolic calcium serves as a functional read-out for many receptors and channels.

In a further experiment the target is T2, human TRPA1 (Homo sapiens, UniProt O75762).
T2 construct: expressed in transfected cells; host or cells: HEK293 (human cells)
Kind of experiment: functional cell based calcium assay, cells recombinantly expressing human TRPA1. To be noted: activator (agonist) of TRPA1; intracellular calcium, calcium-sensitive dye fluorescence.
Description: as §1, §2, §3

T2 sequence (O75762 whole entry): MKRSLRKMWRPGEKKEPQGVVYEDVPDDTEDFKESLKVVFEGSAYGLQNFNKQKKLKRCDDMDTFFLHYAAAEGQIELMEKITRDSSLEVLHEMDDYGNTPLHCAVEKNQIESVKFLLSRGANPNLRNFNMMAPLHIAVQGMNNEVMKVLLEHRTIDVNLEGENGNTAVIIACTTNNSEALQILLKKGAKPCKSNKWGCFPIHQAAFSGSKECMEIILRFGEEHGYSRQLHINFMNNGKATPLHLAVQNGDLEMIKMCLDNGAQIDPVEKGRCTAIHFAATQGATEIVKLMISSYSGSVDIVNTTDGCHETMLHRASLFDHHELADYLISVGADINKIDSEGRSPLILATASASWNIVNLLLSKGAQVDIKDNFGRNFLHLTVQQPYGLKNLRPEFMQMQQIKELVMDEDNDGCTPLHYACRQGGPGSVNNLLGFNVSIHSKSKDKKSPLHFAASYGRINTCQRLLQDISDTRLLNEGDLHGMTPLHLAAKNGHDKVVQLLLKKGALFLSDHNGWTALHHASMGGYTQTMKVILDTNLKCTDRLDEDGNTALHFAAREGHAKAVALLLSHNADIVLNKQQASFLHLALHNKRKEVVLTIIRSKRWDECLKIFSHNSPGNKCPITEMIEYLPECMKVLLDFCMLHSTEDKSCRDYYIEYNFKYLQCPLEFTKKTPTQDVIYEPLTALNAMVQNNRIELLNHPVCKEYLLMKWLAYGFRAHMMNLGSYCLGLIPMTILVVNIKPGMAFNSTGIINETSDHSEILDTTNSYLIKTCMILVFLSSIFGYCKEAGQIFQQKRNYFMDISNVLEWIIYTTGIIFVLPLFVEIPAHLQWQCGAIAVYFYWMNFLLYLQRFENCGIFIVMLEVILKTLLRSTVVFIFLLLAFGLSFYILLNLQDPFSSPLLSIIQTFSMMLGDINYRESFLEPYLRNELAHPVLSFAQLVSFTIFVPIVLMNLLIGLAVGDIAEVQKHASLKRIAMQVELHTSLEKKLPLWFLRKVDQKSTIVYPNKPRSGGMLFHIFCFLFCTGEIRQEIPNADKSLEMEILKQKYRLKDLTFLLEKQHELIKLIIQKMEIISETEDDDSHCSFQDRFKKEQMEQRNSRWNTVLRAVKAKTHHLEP
T1 sequence (Q7Z2W7 whole entry): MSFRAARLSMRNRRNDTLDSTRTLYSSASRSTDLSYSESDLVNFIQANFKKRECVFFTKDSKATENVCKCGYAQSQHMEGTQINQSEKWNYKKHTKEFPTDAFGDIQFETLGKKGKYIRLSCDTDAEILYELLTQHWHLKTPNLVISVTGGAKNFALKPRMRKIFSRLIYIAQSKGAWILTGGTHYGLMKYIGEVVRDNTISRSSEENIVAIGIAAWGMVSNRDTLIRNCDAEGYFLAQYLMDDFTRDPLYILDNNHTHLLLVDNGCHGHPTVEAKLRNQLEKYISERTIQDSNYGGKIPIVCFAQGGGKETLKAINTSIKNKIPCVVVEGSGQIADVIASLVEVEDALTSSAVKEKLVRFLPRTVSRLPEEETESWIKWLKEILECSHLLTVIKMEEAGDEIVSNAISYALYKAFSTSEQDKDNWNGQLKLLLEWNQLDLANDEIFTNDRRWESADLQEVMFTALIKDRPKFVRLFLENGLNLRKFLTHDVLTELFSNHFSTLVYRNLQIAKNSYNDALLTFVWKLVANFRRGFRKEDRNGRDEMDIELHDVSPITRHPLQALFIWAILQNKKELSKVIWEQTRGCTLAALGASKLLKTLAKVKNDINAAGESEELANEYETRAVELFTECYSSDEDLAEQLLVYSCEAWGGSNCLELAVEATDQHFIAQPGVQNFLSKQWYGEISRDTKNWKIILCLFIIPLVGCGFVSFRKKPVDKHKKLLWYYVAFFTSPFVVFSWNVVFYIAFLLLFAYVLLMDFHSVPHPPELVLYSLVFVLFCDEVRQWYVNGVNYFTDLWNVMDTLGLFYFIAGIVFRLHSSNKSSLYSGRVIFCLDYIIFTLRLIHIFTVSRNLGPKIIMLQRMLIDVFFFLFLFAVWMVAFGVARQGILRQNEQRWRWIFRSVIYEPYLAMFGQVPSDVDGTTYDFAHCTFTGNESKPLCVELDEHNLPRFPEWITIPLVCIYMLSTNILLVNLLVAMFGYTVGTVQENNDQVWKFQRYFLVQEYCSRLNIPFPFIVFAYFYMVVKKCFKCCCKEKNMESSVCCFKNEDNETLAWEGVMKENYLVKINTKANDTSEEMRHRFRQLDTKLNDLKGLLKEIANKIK

The term EC50 denotes the concentration at which the effect is half-maximal. With `COc1ccc2c(=O)c(-c3ccccc3)c(C)oc2c1` [Compound I.3, 7-methoxy-2-methyl-3-phenyl-4H-chromen-4-one], the half-maximal effective concentration (EC50) on human TRPM8 is ~2.01 µM and 2.01 µM; at human TRPA1, ~72.4 µM and 72.4 µM. Also, on human TRPM8, the “EC50 as activator of TRPM8 times lower than EC50 as activator of TRPA1” value is reported as “about 36 times”.

Regarding `COc1ccc(OC)c(NC=C2C(=O)CC(C)(C)CC2=O)c1` [Compound II.3, 2-{[(2,5-dimethoxyphenyl)amino]methylidene}-5,5-dimethylcyclohexane-1,3-dione], at human TRPM8, the EC50 is ~8.01 µM and 8.01 µM; the “EC50 as activator of TRPM8 times lower than EC50 as activator of TRPA1” value is recorded as “about 15.4 times”. Also, the half-maximal effective concentration (EC50) at human TRPA1 was ~123 µM and 123 µM.

Turning to `Cc1ccc(-c2cc(C(=O)N/N=C/c3ccncc3)[nH]n2)s1` [Compound III.3, 3-(5-methylthiophen-2-yl)-N′-[(1E)-pyridin-4-ylmethylidene]-1H-pyrazole-5-carbohydrazide], on human TRPM8, the concentration for a half-maximal effect (EC50) is ~5.27 µM and 5.27 µM; the “EC50 as activator of TRPM8 times lower than EC50 as activator of TRPA1” value is listed as “about 21.5 times”. Also, at human TRPA1, the 50% effective concentration (EC50) is ~113 µM and 113 µM.

Regarding `CCCc1cc(=O)[nH]c(SCC(=O)Nc2cc(Cl)ccc2Cl)n1` [Compound IV.3, N-(2,5-dichlorophenyl)-2-[(6-oxo-4-propyl-1,6-dihydropyrimidin-2-yl)sulfanyl]acetamide], on human TRPM8, the concentration giving a half-maximal response (EC50) is ~4.12 µM and 4.12 µM; the “EC50 as activator of TRPM8 times lower than EC50 as activator of TRPA1” value is recorded as “about 28.6 times”. Also, the EC50 on human TRPA1 is ~118 µM and 118 µM.

As to `Cc1nc2ccccc2n1CCC(=O)N1CCN(Cc2ccc3c(c2)OCO3)CC1` [Compound V.3, 1-[4-(2H-1,3-benzodioxol-5-ylmethyl)piperazin-1-yl]-3-(2-methyl-1H-1,3-benzodiazol-1-yl)propan-1-one], at human TRPM8, the EC50 is ~7.53 µM and 7.53 µM; the “EC50 as activator of TRPM8 times lower than EC50 as activator of TRPA1” value is given as “about 18.4 times”. Besides, at human TRPA1, the EC50 is ~138 µM and 138 µM.

As for `Cc1ccc(C(=O)NCC2(c3ccccc3)CCOCC2)cc1` [Compound VI.3, 4-methyl-N-[(4-phenyloxan-4-yl)methyl]benzamide], the EC50 is ~8.15 µM and 8.15 µM at human TRPM8; ~108 µM and 108 µM at human TRPA1. Besides, at human TRPM8, the “EC50 as activator of TRPM8 times lower than EC50 as activator of TRPA1” value is given as “about 13.2 times”.

Turning to `CC(C)C(CCNCCCN(C)C)c1ccc(Cl)cc1` (stereo not drawn) [Compound VII.3, [3-(4-chlorophenyl)-4-methylpentyl][3-(dimethylamino)propyl]amine], the concentration for a half-maximal effect (EC50) is ~10.9 µM and 10.9 µM on human TRPM8; ~56.6 µM and 56.6 µM on human TRPA1. At human TRPM8, the “EC50 as activator of TRPM8 times lower than EC50 as activator of TRPA1” value is reported as “about 5.2 times”.
